From PubChem BioAssay (NCI)
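These data come from cells grown in 96-well plates and exposed to compound for 48 hours at five concentrations. GI50 marks 50% less growth. TGI: total growth inhibition.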

Columns and labels:
Experiment in all cases: growth of human tumour cells (NCI), 48 h
CCRF-CEM leukemia = tested on: CCRF-CEM leukemia
COLO 205 colon = tested on: COLO 205 colon
MOLT-4 leukemia = tested on: MOLT-4 leukemia
OVCAR-4 ovarian = tested on: OVCAR-4 ovarian
PC-3 prostate = tested on: PC-3 prostate
RPMI-8226 leukemia = tested on: RPMI-8226 leukemia
RXF 393 renal = tested on: RXF 393 renal
SK-MEL-28 melanoma = tested on: SK-MEL-28 melanoma
SN12C renal = tested on: SN12C renal
UACC-257 melanoma = tested on: UACC-257 melanoma

Compound: COc1cc(C2c3cc4c(cc3C3OC[C@@H]2C3CO)OCO4)cc(OC)c1OC (some centres undefined)
- TGI (CCRF-CEM leukemia): > 100 µM
- TGI (COLO 205 colon): 33.6 µM
- TGI (MOLT-4 leukemia): > 100 µM
- TGI (OVCAR-4 ovarian): > 100 µM
- TGI (PC-3 prostate): > 100 µM
- TGI (RPMI-8226 leukemia): > 100 µM
- TGI (RXF 393 renal): > 100 µM
- TGI (SK-MEL-28 melanoma): > 100 µM
- GI50 (SN12C renal): 59.4 µM
- TGI (SN12C renal): > 100 µM
- TGI (UACC-257 melanoma): 76.5 µM

Compound: O=c1[nH]n(Cc2ccccc2)c2ccc([N+](=O)[O-])cc12
- TGI (CCRF-CEM leukemia): > 100 µM
- TGI (COLO 205 colon): > 100 µM
- TGI (MOLT-4 leukemia): > 100 µM
- TGI (OVCAR-4 ovarian): > 100 µM
- TGI (PC-3 prostate): > 100 µM
- TGI (RPMI-8226 leukemia): > 100 µM
- TGI (RXF 393 renal): > 100 µM
- TGI (SK-MEL-28 melanoma): > 100 µM
- TGI (SN12C renal): > 100 µM
- TGI (UACC-257 melanoma): > 100 µM

Compound: C#CCn1c(=O)c(C)cn(/C(=C\C(=O)OCC)C(=O)OCC)c1=O
- GI50 (CCRF-CEM leukemia): 0.7 µM
- TGI (CCRF-CEM leukemia): 8 µM
- GI50 (COLO 205 colon): 1.52 µM
- TGI (COLO 205 colon): 3.12 µM
- TGI (MOLT-4 leukemia): > 26.5 µM
- TGI (OVCAR-4 ovarian): 6.35 µM
- TGI (PC-3 prostate): 27.6 µM
- TGI (RPMI-8226 leukemia): > 23.2 µM
- TGI (RXF 393 renal): 4.49 µM
- GI50 (SK-MEL-28 melanoma): 14.5 µM
- TGI (SK-MEL-28 melanoma): 31 µM
- TGI (SN12C renal): 33.9 µM
- TGI (UACC-257 melanoma): 28.2 µM

Compound: Cc1ccccc1N=C(N)Nc1ccccc1C
- TGI (CCRF-CEM leukemia): > 100 µM
- TGI (COLO 205 colon): > 100 µM
- TGI (MOLT-4 leukemia): > 100 µM
- TGI (OVCAR-4 ovarian): > 100 µM
- TGI (PC-3 prostate): > 100 µM
- TGI (RPMI-8226 leukemia): > 100 µM
- TGI (RXF 393 renal): > 100 µM
- TGI (SK-MEL-28 melanoma): > 100 µM
- TGI (SN12C renal): > 100 µM
- TGI (UACC-257 melanoma): > 100 µM

Compound: CCCCCCCCCCCCCCCCCCNc1nc(=O)n(C2CC(O)C(COP(=O)(O)O)O2)cc1F (centres undefined)
- TGI (CCRF-CEM leukemia): 81.2 µM
- TGI (COLO 205 colon): > 100 µM
- TGI (MOLT-4 leukemia): > 96.1 µM
- TGI (OVCAR-4 ovarian): > 100 µM
- TGI (PC-3 prostate): > 100 µM
- TGI (RPMI-8226 leukemia): > 100 µM
- TGI (RXF 393 renal): > 100 µM
- TGI (SK-MEL-28 melanoma): > 100 µM
- TGI (SN12C renal): > 100 µM
- TGI (UACC-257 melanoma): > 100 µM

Compound: NN=C(CC(O)(C(F)(F)Cl)C(F)(F)Cl)CC(O)(C(F)(F)Cl)C(F)(F)Cl
- TGI (CCRF-CEM leukemia): > 10 µM
- TGI (COLO 205 colon): > 10 µM
- TGI (MOLT-4 leukemia): > 10 µM
- TGI (OVCAR-4 ovarian): > 10 µM
- TGI (PC-3 prostate): > 10 µM
- TGI (RPMI-8226 leukemia): > 10 µM
- TGI (RXF 393 renal): > 10 µM
- TGI (SK-MEL-28 melanoma): > 10 µM
- TGI (SN12C renal): > 10 µM
- TGI (UACC-257 melanoma): > 10 µM

Compound: CCOP(=O)(O)CN1CCNCCN(CP(=O)(O)OCC)CCNCC1
- TGI (CCRF-CEM leukemia): > 100 µM
- TGI (COLO 205 colon): > 100 µM
- TGI (MOLT-4 leukemia): > 100 µM
- TGI (OVCAR-4 ovarian): > 100 µM
- TGI (PC-3 prostate): > 100 µM
- TGI (RPMI-8226 leukemia): > 100 µM
- TGI (RXF 393 renal): > 100 µM
- TGI (SK-MEL-28 melanoma): > 100 µM
- TGI (SN12C renal): > 100 µM
- TGI (UACC-257 melanoma): > 100 µM

Compound: CC(=O)Nc1ccc(OC/C(N)=N/NC(=O)c2ccncc2)cc1
- TGI (CCRF-CEM leukemia): > 100 µM
- TGI (COLO 205 colon): > 100 µM
- TGI (MOLT-4 leukemia): > 100 µM
- TGI (OVCAR-4 ovarian): > 100 µM
- TGI (PC-3 prostate): > 100 µM
- TGI (RPMI-8226 leukemia): > 100 µM
- TGI (RXF 393 renal): > 100 µM
- TGI (SK-MEL-28 melanoma): > 100 µM
- TGI (SN12C renal): > 100 µM
- TGI (UACC-257 melanoma): > 100 µM

Compound: CN(C)Cc1cc(C(=O)/C=C/c2ccccc2)cc(CN(C)C)c1O
- TGI (CCRF-CEM leukemia): > 100 µM
- TGI (COLO 205 colon): 31.9 µM
- TGI (MOLT-4 leukemia): 63.7 µM
- TGI (OVCAR-4 ovarian): > 100 µM
- TGI (PC-3 prostate): 36.9 µM
- TGI (RPMI-8226 leukemia): 54.3 µM
- TGI (RXF 393 renal): 71.8 µM
- TGI (SK-MEL-28 melanoma): > 100 µM
- TGI (SN12C renal): 30.9 µM
- TGI (UACC-257 melanoma): 27.9 µM

Compound: CN(C)/N=N/c1nc2c(c(=O)n(C)c(=O)n2C)n1CC(O)CO (centres undefined)
- TGI (CCRF-CEM leukemia): > 100 µM
- TGI (COLO 205 colon): > 100 µM
- TGI (MOLT-4 leukemia): > 100 µM
- TGI (OVCAR-4 ovarian): > 100 µM
- TGI (PC-3 prostate): > 100 µM
- TGI (RPMI-8226 leukemia): > 100 µM
- TGI (RXF 393 renal): > 100 µM
- TGI (SK-MEL-28 melanoma): > 100 µM
- TGI (SN12C renal): > 100 µM
- TGI (UACC-257 melanoma): > 100 µM

Compound: C=C=C(CC(CC(=C)Br)(C(=O)OC)C(=O)OC)S(=O)(=O)c1ccccc1
- TGI (CCRF-CEM leukemia): > 100 µM
- TGI (COLO 205 colon): 3.26 µM
- TGI (MOLT-4 leukemia): > 100 µM
- TGI (OVCAR-4 ovarian): 21.2 µM
- TGI (PC-3 prostate): 4.31 µM
- TGI (RPMI-8226 leukemia): 4.37 µM
- TGI (RXF 393 renal): 3.99 µM
- TGI (SK-MEL-28 melanoma): 3.23 µM
- TGI (SN12C renal): 3.13 µM
- TGI (UACC-257 melanoma): 5.88 µM

Compound: CN1C(=O)C(O)C[C@@H]1c1ccccc1 (some centres undefined)
- TGI (CCRF-CEM leukemia): > 100 µM
- TGI (COLO 205 colon): > 100 µM
- TGI (MOLT-4 leukemia): > 100 µM
- TGI (OVCAR-4 ovarian): > 100 µM
- TGI (PC-3 prostate): > 100 µM
- TGI (RPMI-8226 leukemia): > 100 µM
- TGI (RXF 393 renal): > 100 µM
- TGI (SK-MEL-28 melanoma): > 100 µM
- TGI (SN12C renal): > 100 µM
- TGI (UACC-257 melanoma): > 100 µM

Compound: O=C(c1cccs1)N1CCN(C(=O)c2cccs2)C1=S
- TGI (CCRF-CEM leukemia): 6.87 µM
- TGI (COLO 205 colon): 22.4 µM
- TGI (MOLT-4 leukemia): 8.18 µM
- TGI (OVCAR-4 ovarian): 32.3 µM
- TGI (PC-3 prostate): 15.6 µM
- TGI (RPMI-8226 leukemia): > 19.7 µM
- TGI (RXF 393 renal): 10.5 µM
- TGI (SK-MEL-28 melanoma): 19.2 µM
- TGI (SN12C renal): 10.1 µM
- TGI (UACC-257 melanoma): 22.9 µM

Compound: CCCSc1ccc2[nH]c(N3C(=O)/C(=C/c4ccccc4)N=C3c3ccccc3)cc2c1
- TGI (CCRF-CEM leukemia): > 50 µM
- TGI (COLO 205 colon): 24.6 µM
- TGI (MOLT-4 leukemia): > 50 µM
- TGI (OVCAR-4 ovarian): > 50 µM
- TGI (PC-3 prostate): > 50 µM
- TGI (RPMI-8226 leukemia): 42.9 µM
- TGI (RXF 393 renal): > 50 µM
- TGI (SK-MEL-28 melanoma): > 50 µM
- TGI (SN12C renal): > 50 µM
- TGI (UACC-257 melanoma): > 50 µM

Compound: Nc1ccc(S(=O)(=O)Nc2nc3ccccc3nc2N2CCCCCC2)cc1
- TGI (CCRF-CEM leukemia): > 100 µM
- TGI (COLO 205 colon): 33.4 µM
- TGI (MOLT-4 leukemia): 55.3 µM
- TGI (OVCAR-4 ovarian): 50.9 µM
- TGI (PC-3 prostate): > 100 µM
- TGI (RPMI-8226 leukemia): 42.5 µM
- TGI (RXF 393 renal): 35.5 µM
- TGI (SK-MEL-28 melanoma): 39.4 µM
- TGI (SN12C renal): 44.9 µM
- TGI (UACC-257 melanoma): > 100 µM

Compound: N#Cc1cc2c(n(C3OC(CO)C(O)C(O)C3O)c1=S)CCCCCC2 (centres undefined)
- TGI (CCRF-CEM leukemia): > 100 µM
- TGI (COLO 205 colon): > 100 µM
- TGI (MOLT-4 leukemia): > 100 µM
- TGI (OVCAR-4 ovarian): > 100 µM
- TGI (PC-3 prostate): > 100 µM
- TGI (RPMI-8226 leukemia): > 100 µM
- TGI (RXF 393 renal): > 100 µM
- TGI (SK-MEL-28 melanoma): > 100 µM
- TGI (SN12C renal): > 100 µM
- TGI (UACC-257 melanoma): > 100 µM

Compound: O=C(Nc1ccccc1C(=O)NCc1ccccc1)/C(=C/c1ccccc1)NC(=O)c1ccccc1
- TGI (CCRF-CEM leukemia): > 100 µM
- TGI (COLO 205 colon): > 100 µM
- TGI (MOLT-4 leukemia): > 100 µM
- TGI (OVCAR-4 ovarian): > 100 µM
- TGI (PC-3 prostate): > 100 µM
- TGI (RPMI-8226 leukemia): > 100 µM
- TGI (RXF 393 renal): > 100 µM
- TGI (SK-MEL-28 melanoma): > 100 µM
- TGI (SN12C renal): > 100 µM
- TGI (UACC-257 melanoma): > 100 µM
